# Experimental data published in patent publication US9951055B2, “Thiazole-based inhibitors of scavenger receptor BI” (THE BROAD INSTITUTE, INC., priority 2012, dated 2018).
# Tests used:
# [1] = Stability in human plasma; type: in vitro ADME; conditions: after a 5-hour incubation period
# Experimental: The stability of the probe in PBS (1% DMSO) was measured over 48 hours. We noticed that the concentration of the probe fluctuated through the course of the assay (data not shown). We believe that this fluctuation is due to the low solubility of the probe. Thus, we decided to determine the amount of undissolved probe present in the well after it was treated with PBS for a given length of time, relative to the amount of undissolved probe at the start of the assay. The wells were centrifuged and the supernatant was removed after various time points, then acetonitrile was added to dissolve the remaining solid in the wells, and the amount of probe was quantified. […] The stability of the probe was confirmed by measuring stability in human plasma, with >99% remaining after a 5-hour incubation period. […] FIG. 5 provides a tablular summary of Known Probe (ML278) Properties Computed from Structure.
# [2] = system: endocytosis of transferrin; assay: Transferrin endocytosis assay; type: cell-based
# Source text: Transferrin Endocytosis Assay (SA 3: AID No. 602134) This assay measures the endocytosis of an independent ligand, transferrin, which is not taken up via SR-BI but by clathrin-mediated endocytosis. This assay provides a measure of the selectivity of the inhibitors. Alexa-594-labeled transferrin is taken into the cell via endocytosis and localization of labeled transferrin was quantitated in the various intracellular compartments. […] Inhibitors of interest should act selectively at SR-BI and should have no activity in this assay. Cells were pre-treated with compound for 3 hours and then treated with the Alexa-594 transferrin reagent for 30 minutes (Catalog No. T-13343; Invitrogen) in serum-free media. Plates of cells were then placed onto ice, washed with ice cold PBS, and then fixed with 4% paraformaldehyde. In addition, the nuclei were stained with 300 nM 4′,6-diamidino-2-phenylindole (DAPI) (Catalog No. 21490; Invitrogen). The cells were imaged with the Molecular Devices IXM microscope (FIG. 22). Translocation measurements were performed using MetaExpress software and normalized for cell number.
# SR-BI = molecular target: T1, SR-BI (Mus musculus, UniProt Q61009); assay: Cholesterol efflux assay; type: cell-based; parameters: expressed in transfected cells
# T1 sequence (Q61009 1-509): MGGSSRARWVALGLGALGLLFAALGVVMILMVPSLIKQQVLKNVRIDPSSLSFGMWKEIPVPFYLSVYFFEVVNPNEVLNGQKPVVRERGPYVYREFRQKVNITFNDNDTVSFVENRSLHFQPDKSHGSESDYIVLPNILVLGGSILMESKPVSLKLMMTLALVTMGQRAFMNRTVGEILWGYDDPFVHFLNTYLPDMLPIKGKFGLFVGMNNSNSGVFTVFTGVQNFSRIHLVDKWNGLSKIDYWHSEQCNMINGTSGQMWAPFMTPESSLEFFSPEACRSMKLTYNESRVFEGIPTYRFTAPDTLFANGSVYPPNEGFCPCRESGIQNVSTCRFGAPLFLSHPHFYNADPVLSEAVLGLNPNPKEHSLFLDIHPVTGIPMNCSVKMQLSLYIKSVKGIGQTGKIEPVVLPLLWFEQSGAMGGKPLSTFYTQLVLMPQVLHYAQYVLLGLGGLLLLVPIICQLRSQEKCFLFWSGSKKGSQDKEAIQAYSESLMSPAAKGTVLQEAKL
# Experimental: SR-BI also mediates bidirectional flux (e.g. efflux) of unesterified or ‘free’ cholesterol (FC) between cells and HDL or other acceptors. In vivo, the greatest SR-BI-mediated selective uptake occurs in the liver and steroidogenic organs. This assay is used to determine if the compounds alter the efflux of FC to HDL.
# On Day 0, 50,000 cells per well were plated in 24-well plates. On the following day, the media was removed and [^3H]cholesterol in lipoprotein-deficient media was added. On Day 1, the medium was replaced with Ham's F12 medium supplemented with 10% bovine lipoprotein deficient serum with 1 μCi/ml [1,2-^3H]cholesterol (40-60 Ci/mmol). On Day 3, the cells were washed to remove serum and incubated in Ham's F12 plus 1% fatty acid-free BSA. On Day 4, the cells were washed and pretreated with compounds for 1 hour. Subsequently, the cells were incubated for an additional 2 hours with the same concentrations of small molecules and with unlabeled HDL (final HDL concentration of 100 μg protein/ml). The medium was collected to determine released cholesterol, and the cells were lysed. The amount of [^3H]cholesterol in the medium and cells was determined using liquid scintillation counting. Total cellular [^3H]cholesterol was calculated as the sum of the radioactivity in the efflux medium plus the radioactivity in the cells and was used to calculate the [^3H]cholesterol efflux (percent of total [^3H]cholesterol released into the medium).
# Plasma protein binding = type: in vitro ADME; conditions: human plasma; read-out: plasma protein binding, bound (converted)
# murine SR-BI = molecular target: T2, murine SR-BI (Mus musculus, UniProt Q61009); assay: DiI-HDL uptake assay with extended washout; type: cell-based; conditions: after a 4-hour washout period
# T2 construct: expressed in transfected cells; host or cells: ldlA[mSR-BI]; (CHO ldlA7 derivative lacking the LDL receptor)
# T2 sequence (Q61009 1-509): T1 sequence (Q61009 1-509)
# Experimental: DiI-HDL Uptake Assay with Extended Washout (SA 5: AID No. 602154)
# This is another modification of the primary assay where cells are pretreated with compound but no compound is present during a 4-hour washout period or the subsequent 3-hour DiI-HDL treatment period. […] Cells were treated with compound for 3 hours, then were washed four times with PBS, once with lipoprotein-free media (Ham's F12/0.5% fatty acid-free Bovine Serum Albumin [BSA]/25 mM HEPES pH 7.4), and then returned to the incubator with lipoprotein-free media for 4 hours. Media were then removed and cells were washed with PBS before fresh lipoprotein-free media (Ham's F12/0.5% fatty acid-free Bovine Serum Albumin [BSA]/25 mM HEPES pH 7.4) was added with […] DiI-HDL. Cells took up the DiI via SR-BI over 3 hours in the absence of compound. After significant uptake of the DiI, the cells became fluorescent. The level of fluorescence correlates with the amount of DiI uptake and can be measured with a standard plate reader. The uptake of lipid (represented by DiI) was inhibited by the compound BLT-1 or with an excess of HDL untreated with DiI.
# [3] = listed as compound of Formula (II)
Structure (SMILES),"stability in human plasma, remaining [1] [%]",effect on the endocytosis of transferrin ([2]; at concentrations up to 35 μM),endocytosis of transferrin ([2]; listed as ML278),endocytosis of transferrin ([2]; listed as Probe 278),"endocytosis of transferrin [2, 3]",reduction of efflux of free cholesterol from cells (SR-BI; during the course of the assay),inhibition of efflux of cholesterol (SR-BI; listed as Probe 278),inhibition of efflux of cholesterol (SR-BI; [3]),fraction unbound (Plasma protein binding),IC50 (murine SR-BI) [nM]
"COCC(=O)N1CCc2cc(-c3csc(NC(=O)c4cc(OC)cc(OC)c4)n3)ccc21 [Compound 137, 3,5-Dimethoxy-N-(4-(1-(2-methoxyacetyl)indolin-5-yl)thiazol-2-yl)benzamide]",> 99,no effect on the endocytosis of transferrin,not grossly perturbing cellular membrane trafficking pathways,did not inhibit endocytosis of transferring,does not inhibit endocytosis of transferrin,up to 50%,Inhibits efflux of cholesterol,inhibit efflux of cholesterol,0.065,
"CCCCCCC1CCCC1=NNC(N)=S (stereo not shown) [BLT-1, reference compound]",,,,,,,,,,0.6
